From paper PMC9102404, “Cationic N,N-Dimethylglycine Ester Prodrug of 2R-α-Tocotrienol Promotes Intestinal Absorption via Efficient Self-Micellization with Intrinsic Bile Acid Anion” (Molecules, 2022)
Counter-ions that a name gives are not always drawn.

Key:
Water solubility = assay type: physicochemical; settings: distilled water, 25 ± 1 °C, shaken 3 h
Protocol: The aqueous solubility of each ester was determined by adding 50 μmol of each compound to 1 mL of distilled water in amber test tubes and incubating the tubes at 25 ± 1 °C in a constant-temperature water bath. The test tubes were shaken for 3 h, and the suspensions were filtered using a membrane filter (MF-Millipore™ Membrane Filter, 0.45 µm pore size, Merck KGaA, Darmstadt, Germany). The filtered media, including α-T3DMG, was assayed using the liquid chromatography (LC)-MS/MS method described in Section 4.8.

[1] = Enzymatic hydrolysis of α-T3 esters in rat plasma; assay type: in vitro ADME; settings: pH 7.4, 37 °C, Michaelis–Menten fit
[2] = Enzymatic hydrolysis of α-T3 esters in rat liver microsomes; assay type: in vitro ADME; settings: rat liver microsome, pH 7.4, 37 °C, Michaelis–Menten fit; for Km: liver microsomes
Protocol: The hydrolysis of esters was analyzed at 37 °C in phosphate-buffered saline (PBS) containing commercially available rat liver microsomes (In Vitro Technologies, Inc., Baltimore, MD, USA). The microsomes (20 mg/mL) were adjusted to a protein concentration of 0.11 mg/mL and preincubated at 37 °C for 5 min before adding the esters.
Stock solutions of the esters were prepared in a 5% methanol aqueous solution. Enzymatic reactions were initiated by adding 50 µL ester stock solution (final concentration 50–800 μmol/L) and 50 μL PBS to 900 µL preheated reaction medium containing rat liver microsomes in amber test tubes. These reactions were incubated at 37 °C; and, at various times, 100 μL aliquots were removed and mixed with 350 µL ethanol. Samples were then vortexed for 2 min and centrifuged at 1750 g for 5 min. The aliquot was analyzed using the LC-MS/MS system described in Section 4.8. The initial hydrolytic rate (μmol/L α-T3 formed per min) was calculated from the initial slope of the plot of α-T3 concentration versus time.

[3] = Effect of eserine (esterase inhibitor) on ester hydrolysis in rat liver microsomes; assay type: in vitro ADME; settings: eserine 0–2.0 mmol/L
Protocol: The effects of eserine on α-T3DMG hydrolysis in rat liver microsomes were also examined using similar methods, with 50 µL eserine aqueous solution instead of PBS, added to the mixtures with liver microsomes. Eserine was tested at 0–2.0 mmol/L.

Stability in water = assay type: physicochemical
[4] = Particle size distribution, z-potential and pH of aqueous solutions of α-T3DMG with or without TCA; assay type: physicochemical
Protocol: The fitting curves were obtained by the plateau model using GraphPad Prism to indicate a smoothing curve connecting each point. The z-average with PDI and the z-potential of the aqueous solution of α-[…] with or without TCA, as described in Section 4.7.1, were determined using a Zetasizer Nano ZS (MALVERN, Worcestershire, UK). Measurements were independently performed three times for each sample. The pH of the aqueous solution of α-[…] with or without TCA is described in Section 4.7.1. It was measured using a LAQUAtwin pH-11 pocket water quality meter (HORIBA, Ltd., Kyoto, Japan).

[5] = Appearance of aqueous solutions of α-T3DMG with or without TCA; assay type: physicochemical
Protocol: A stock solution of α-T3DMG was prepared in milliQ and combined with different concentrations of taurocholic acid (TCA) aqueous solution to the final molar ratios (α-T3DMG/TCA = 1/0.1–4). The fitting curves were obtained by the plateau model using GraphPad Prism to indicate a smoothing curve connecting each point.

[6] = Distribution of α-T3DMG to n-octanol and water phases; assay type: physicochemical; settings: increasing TCA molar ratio
Protocol: The fitting curves were obtained by the plateau model using GraphPad Prism to indicate a smoothing curve connecting each point. The prepared solutions described in Section 4.7.1 were combined with the same volume of n-octanol and then vortexed for 2 min. The solutions were then centrifuged at 20,600× g for 20 min. The upper layer (n-octanol) and the lower layer (water) were collected, diluted with ethanol, and subjected to LC-MS/MS, as described in Section 4.7.

[7] = Plasma α-T3 pharmacokinetics after gastrostomy administration in bile duct-ligated rats; assay type: in vivo, rat
Protocol: The SD rats were fasted for 16 h, and they were provided drinking water ad libitum prior to the administration of the test compounds. The rats were administered three types of mixed anesthetic agents (medetomidine, midazolam, and butorphanol) under isoflurane anesthesia. To avoid the influence of intrinsic bile flow on intestinal absorption, a catheter was inserted into the bile ducts of the rats. The catheter was ligated with strings, and intrinsic bile flow was excluded. This animal model was referred to in an animal experimental book in Japanese, titled in English as, “An atlas of experimental animal technology” published in 1998; this method is very similar to that described in Figure 5 of Jaber et al..
Dosing solutions were prepared as follows: (i) 5.88 mmol/L α-T3DMG and 5.88 mmol/L TCA in water (α-T3DMG:TCA = 1:1), (ii) 5.88 mmol/L α-T3DMG and 11.76 mmol/L TCA in water (α-T3DMG:TCA = 1:2), and (iii) 5.88 mmol/L α-T3 and 11.76 mmol/L TCA in water (α-T3:TCA = 1:2). The α-T3 was dispersed in silica powder in ethanol, and the solvent was removed in vacuo prior to dispersion in water. The ligated rats were administered […] of α-T3DMG or α-T3 via gastrostomy. The doses were 12.5 mg/kg of body weight equivalent for α-T3.
Blood samples (200 µL) were collected from the external jugular vein under isoflurane anesthesia using heparinized syringes at 0.5, 1, 2, 3, 4, 6, 8, and 24 h. […]

[8] = Toxicity observation in the in vivo study; settings: bile duct-ligated rats, 12.5 mg/kg α-T3 equivalent, gastrostomy
[9] = 5.88 mmol/L α-T3DMG, TCA molar ratio 0
[10] = 5.88 mmol/L α-T3DMG, TCA molar ratio 0.3
[11] = 5.88 mmol/L α-T3DMG, TCA molar ratio 0.9
[12] = 5.88 mmol/L α-T3DMG, TCA molar ratio 1
[13] = 5.88 mmol/L α-T3DMG, TCA molar ratio 1.5
[14] = 5.88 mmol/L α-T3DMG, TCA molar ratio 3
[15] = 5.88 mmol/L α-T3DMG, TCA molar ratio 4
[16] = 23.52 mmol/L α-T3DMG, TCA molar ratio 0
[17] = 23.52 mmol/L α-T3DMG, TCA molar ratio 0.3
[18] = 23.52 mmol/L α-T3DMG, TCA molar ratio 1.5
[19] = 23.52 mmol/L α-T3DMG, TCA molar ratio 3
[20] = 23.52 mmol/L α-T3DMG, TCA molar ratio 4

SMILES: CNCC(=O)Oc1c(C)c(C)c2c(c1C)CC[C@@](C)(CC/C=C(\C)CC/C=C(\C)CCC=C(C)C)O2 [α-T3MG, 2R-α-Tocotrienyl N-methylglycinate]
- solubility at 3 h (Water solubility): > 50000 µM
- Km [1]: 1460 µM
- Vmax [1]: 5.573e-07 mol/L/min
- Km [2]: 176 µM
- Vmax [2]: 2.051e-06 mol/L/min
- hydrolysis in the presence of eserine [3]: completely inhibited

SMILES: CC(C)=CCC/C(C)=C/CC/C(C)=C/CC[C@]1(C)CCc2c(C)c(OC(=O)CN(C)C)c(C)c(C)c2O1 [α-T3DMG, 2R-α-Tocotrienyl N,N-dimethylglycinate hydrochloride]
- solubility at 3 h (Water solubility): > 50000 µM
- degradation in water (Stability in water; incubated at 5 and 20 °C for 28 days): did not exhibit any degradation
- stability in water (Stability in water; room temperature (20 °C) for a month): stable
- half-life (Stability in water; water, accelerated condition at 40 °C): ~27 days
- Km [1]: 664 µM
- Vmax [1]: 8.138e-08 mol/L/min
- Km [2]: 5720 µM
- Vmax [2]: 0.0001395 mol/L/min
- hydrolysis in the presence of eserine [3]: completely inhibited
- PDI [4, 9]: 0.542 ± 0.034
- Z-Average [4, 9]: 282.0 ± 8.9 nm
- Z-Potential [4, 9]: 95.4 ± 2.5 mV
- pH [4, 9]: 3.0
- PDI [4, 10]: 0.428 ± 0.014
- Z-Average [4, 10]: 12.6 ± 0.2 nm
- Z-Potential [4, 10]: 48.3 ± 7.5 mV
- pH [4, 10]: 3.2
- PDI [4, 11]: 0.228 ± 0.039
- Z-Average [4, 11]: 3.8 ± 1.1 nm
- Z-Potential [4, 11]: 19.1 ± 12.2 mV
- pH [4, 11]: 3.8
- PDI [4, 12]: 0.203 ± 0.064
- Z-Average [4, 12]: 5.3 ± 3.5 nm
- Z-Potential [4, 12]: 8.70 ± 6.17 mV
- pH [4, 12]: 3.8
- PDI [4, 13]: 0.161 ± 0.045
- Z-Average [4, 13]: 3.1 ± 0.0 nm
- Z-Potential [4, 13]: −4.35 ± 1.99 mV
- pH [4, 13]: 4.1
- PDI [4, 14]: 0.217 ± 0.009
- Z-Average [4, 14]: 4.3 ± 1.8 nm
- Z-Potential [4, 14]: −0.0299 ± 0.260 mV
- pH [4, 14]: 4.6
- PDI [4, 15]: 0.466 ± 0.068
- Z-Potential [4, 15]: −22.1 ± 3.37 mV
- pH [4, 15]: 4.7
- Z-Average ([4]; 5.88 mmol/L α-T3DMG, TCA molar ratio 4, ambiguous data (footnote a)): 163.7 ± 84.5 ^a nm
- PDI [4, 16]: 0.490 ± 0.020
- Z-Average [4, 16]: 307.8 ± 8.6 nm
- pH [4, 16]: 2.7
- PDI [4, 17]: 0.336 ± 0.026
- Z-Average [4, 17]: 6.6 ± 0.1 nm
- pH [4, 17]: 3.5
- pH ([4]; 23.52 mmol/L α-T3DMG, TCA molar ratio 0.9): 3.9
- PDI ([4]; 23.52 mmol/L α-T3DMG, TCA molar ratio 0.9, ambiguous data (footnote a)): 0.286 ± 0.231 ^a
- Z-Average ([4]; 23.52 mmol/L α-T3DMG, TCA molar ratio 0.9, ambiguous data due to precipitation (footnote b)): 4.2 ± 0.4 ^b nm
- pH ([4]; 23.52 mmol/L α-T3DMG, TCA molar ratio 1): 3.9
- PDI ([4]; 23.52 mmol/L α-T3DMG, TCA molar ratio 1, ambiguous data (footnote a)): 0.250 ± 0.179 ^a
- PDI [4, 18]: 0.190 ± 0.045
- Z-Average [4, 18]: 9.2 ± 6.1 nm
- pH [4, 18]: 4.4
- PDI [4, 19]: 0.219 ± 0.051
- Z-Average [4, 19]: 22.4 ± 15.1 nm
- pH [4, 19]: 4.8
- PDI [4, 20]: 0.217 ± 0.005
- Z-Average [4, 20]: 23.7 ± 12.2 nm
- pH [4, 20]: 4.8
- appearance in water ([5]; absence of TCA, all concentrations (2.94–23.52 mmol/L)): cloudy
- appearance of mixed solution ([5]; equal molar ratio of TCA versus 23.52 mmol/L α-T3DMG): white precipitation
- appearance in water ([5]; presence of TCA, except 23.52 mmol/L α-T3DMG at α-T3DMG:TCA 1:0.9 and 1:1): transparent
- α-T3DMG levels in the n-octanol phase [6]: reached a plateau at approximately equal molar ratios of α-T3DMG and TCA
- plasma levels of α-T3DMG (ester form) relative to α-T3 ([7]; gastrostomy of α-T3DMG with TCA): 4–10%
- toxicity or abnormalities in rats and blood samples [8]: no toxicity or abnormalities were observed

SMILES: CC(C)=CCC/C(C)=C/CC/C(C)=C/CC[C@]1(C)CCc2c(C)c(O)c(C)c(C)c2O1 [α-T3, 2R-α-Tocotrienol]
- plasma α-T3 levels after postprandial (TCA 1:2) administration of α-T3 compared with fasting (TCA 1:1) administration of α-T3DMG ([7]; gastrostomy, Supplementary Figure S2): similar

SMILES: C[C@H](CCC(=O)NCCS(=O)(=O)O)[C@H]1CC[C@H]2[C@@H]3[C@H](O)C[C@@H]4C[C@H](O)CC[C@]4(C)[C@H]3C[C@H](O)[C@]12C [TCA, taurocholic acid, reference compound]
- z-potential ([4]; TCA without α-T3DMG in water, 23.52 mmol/L): −38.9 ± 1.9 mV

SMILES: CNCC(=O)Oc1c(C)c(C)c2c(c1C)CC[C@@](C)(CC/C=C(\C)CC/C=C(\C)CCC=C(C)C)O2 (as salt: hydrochloride) [α-T3MG, 2R-α-Tocotrienyl N-methylglycinate]
- melting point: 170 to 173 °C

SMILES: CC(C)=CCC/C(C)=C/CC/C(C)=C/CC[C@]1(C)CCc2c(C)c(OC(=O)CCC(=O)O)c(C)c(C)c2O1 [α-T3Suc, 2R-α-Tocotrienyl acid succinate]
- Km [1]: 1290 µM
- Vmax [1]: 1.033e-07 mol/L/min
- Km [2]: 61.6 µM
- Vmax [2]: 7.426e-08 mol/L/min
